What is called viability is a per cent measure of how many cells are alive, often set against a control. Low values mean a greater loss of cells, high ones better survival.

For data set [1] the following is noted: previous in vitro studies, cited from earlier work.
Data set [2] can be described thus: Apoptosis assay (annexin V-FITC/propidium iodide flow cytometry). The following applies: human. The procedure:
(§1) FIGS. (7A1–7A3), (7B1–7B2), (7C1–7C3), (7D1–7D2), (7E1–7E3), (7F1–7F2). […] Cells were grown in serum-free medium overnight in T-25 flasks and treated with tempol (10 mM) or tempo (10 mM) for various times, trypsinized, and then resuspended in 200 ul 1× binding buffer as described in experimental procedures. The cell suspension was double-stained with annexin V-FITC and propidium iodide and analyzed by flow cytometry. Background signal was determined by comparison with double-stained, single-stained, or unstained control cells. (7A1–7A3), (7C1–7C3), and (7E1–7E3) are cytograms showing a relative distribution of viable (V), apoptotic (A), and necrotic (N) cells at 2 h following tempol or tempo treatment of MDA-MB 231 cells (A), PCI-04A cells (C), and PC-3 cells (E). (7B1–7B3), (7D1–7D2), and (7F1–7F2) are time course analyses of MDA-MB 231 cells (B), PCT-04A cells (D), and PC-3 cells (F). 100,000 cells were analyzed at each time point in triplicate (B) or quadruplicate (D and F). Solid bars, 1% ethanol, striped bars, 10 mM tempol, empty bars, 10 mM tempo. […] Data shown are representative from three to four independent experiments. (7B1–7B2), Time course analysis of MDA-MB 231 cells undergoing apoptosis (annexin V-FITC staining) (7B1), or necrosis (propidium iodide staining) (7B2). Values shown are mean±s.d. of triplicate determinations per time point in each treatment category, and representative of three to four independent experiments. […] (7D1–7D2), Time course analysis of PCI-04A cells undergoing apoptosis (annexin V-FITC staining) (7D1), or necrosis (propidium iodide staining) (7D2). Values shown are mean±s.d. of quadruplicate determinations per time point in each treatment category. […] (7F1–7F2), Time course analysis of PC-3 cells undergoing apoptosis (annexin V-FITC staining) (7F1), or necrosis (propidium iodide staining) (7F2). Values shown are mean±s.d. of quadruplicate determinations per time point in each treatment category. Control/C, cells treated with 1% ethanol for 2 h.
(§2) Apoptosis Assay—ApoAlert Annexin V apoptosis detection system (Clontech Lab Inc., Palo Alto, Calif.) was used to measure the relative distribution of apoptotic and necrotic cells. Briefly, cells were seeded at a density of 1×10^6 cells per 25 cm^2 tissue culture flask in medium containing 10% FBS overnight, followed by washing twice in serum-free medium. Cells were maintained overnight in serum-free medium and exposed to tempol (10 mM) or tempo (10 mM) for various times. This was followed by rinsing twice with serum-free medium prior to trypsinization, dilution in two volumes of serum-free medium, and centrifugation at 10,000× g. The cell pellet was washed once with PBS and resuspended in 200 ul of 1× binding buffer. The cell suspension was double-labeled with fluorescein isothiocyanate (FITC)-labeled annexin V (10 ul) and propidium iodide (PI) (10 ul) according to the manufacturer's instructions. Unlabeled cells or untreated cells labeled with either FITC-annexin V or PI, or double-labeled served as internal controls for the background signal. The intensity of the dye uptake by cells was detected using FACStar plus Flow Cytometer (Becton Dickerson, Lincoln Park, N.J.), and data were analyzed using Reproman True Facts software (Seattle, Wash.). Viable cells were FITC−/PI−, apoptotic cells were FITC+/PI−, and necrotic cells were FITC+/PI+.
In general terms: A flow cytometer gives signals particle by particle.

Assay in data set [3]: as above
The following applies: human. The procedure: as §1, §2
The source holds these as a separate data set.

Data set [4] is described as follows: Apoptosis assay (annexin V-FITC/propidium iodide flow cytometry), serum-free. The note with it: human. The procedure:
as §1
Apoptosis Assay—ApoAlert Annexin V apoptosis detection system (Clontech Lab Inc., Palo Alto, Calif.) was used to measure the relative distribution of apoptotic and necrotic cells. Briefly, cells were seeded at a density of 1×10^6 cells per 25 cm^2 tissue culture flask in medium containing 10% FBS overnight, followed by washing twice in serum-free medium. Cells were maintained overnight in serum-free medium and exposed to tempol (10 mM) or tempo (10 mM) for various times. […] The intensity of the dye uptake by cells was detected using FACStar plus Flow Cytometer (Becton Dickerson, Lincoln Park, N.J.), and data were analyzed using Reproman True Facts software (Seattle, Wash.). […]

For data set [5] the following is noted: Kocherginsky et al., 1995; cited from earlier work.
Another data set concerns SAPK. The data set can be described thus: SAPK tyrosine phosphorylation (anti-SAPK IP, anti-PY immunoblot). It counts as cell-based, human. The following applies: 10 mM, time course, vs tempol or untreated controls. The procedure: FIGS. 5A, 5B, 5C. Tempo stimulates tyrosine phosphorylation and activity of SAPK. […] 5A. WCLs (1 mg) were immunoprecipitated with agarose-conjugated anti-SAPK antibody, followed by immunoblotting with anti-PY MAb. 5B. In other independent experiments, anti-SAPK immunoprecipitates were first probed with anti-PY MAb (top), and the blot was then reprobed with anti-SAPK antibody (bottom). 5C. […] WCLs were immunoprecipitated with anti-JNK1 antibody, and the JNK1 activity in immunoprecipitates was measured using GST-cJun (˜41 kDa) as a substrate. UT, untreated cells grown overnight in serum-free medium; CONT/Control, cells grown in serum-free medium overnight, and treated with 1% ethanol for 2 h.
Immunoprecipitation and Immunoblotting—Whole cell lysate (1 mg) was immunoprecipitated with the appropriate agarose-conjugated antibody (1 ug/ml of lysis buffer) overnight at 4° C. with constant agitation. For SAPK immunoprecipitation, WCL (1 mg) was immunoprecipitated with anti-SAPK antibody (5 ug/ml) overnight followed by addition of protein A-Agarose (50 ul of 250 ul/ml stock) and incubation for 2 h at 4° C. Immune-complex beads were collected by microcentrifugation at 15,000×g for 5 min followed by three washes with lysis buffer. […] The bands of interest were quantified by ImageQuant software version 3.3 (Molecular Dynamics Personal Densitometer, Sunnyvale, Calif.). […]
A general note: In western blotting, separated proteins are transferred to a membrane and probed.

The test system of data set [6] is MDA-MB231 human breast tumor xenografts. The experiment in a line: Tumor growth study, MDA-MB231 breast tumor xenografts in athymic mice. It counts as in vivo. The note with it: 200 mg/kg intratumoral once daily for 8 days, vs 10% ethanol vehicle group. The procedure: FIGS. (13A), (13B1–13B2) illustrates the effects of tempo on the growth of human breast tumor xenografts in athymic mice. 13A. Tempo (200 mg/kg) was administered intratumorally once daily for a total of 8 days (*). Control group was treated simultaneously with an equal volume of ethanol (10%). Experiment was terminated when the control tumor volumes exceeded the recommended tumor burden. Each point represents mean q S.E. (n=4). […] (13B1–13B2). Representative tumor-bearing mice. Mice were treated with 10% ethanol (13B1) or tempo (13B2) as explained above.
MDA-MB231 cells (1×10^6) were inoculated subcutaneously in the right flank of 4–6 week-old female athymic mice. Tumor growth was monitored biweekly. Mice bearing tumor volumes in the range of 80–100 mm^3 were randomly selected for treatment. Tempo treatment was initiated (50 mg/kg–200 mg/kg, intratumoral, once daily, for a total of 8 days), and tumor volumes were measured for a total 25 days from the start of treatment.

Consider `CC1(C)CC(O)CC(C)(C)N1[O]` [tempol, 4-hydroxy-tempo, reference compound], for which the protection factor in data set [1] (100 mM, radioprotection) was 2.2. The “concentration required to provide radioprotection” value in data set [1] was 5 to 10 mM. Further, the viability at 2 h, 10 mM worked out at 89.8% in data set [2], 92.3% in data set [3] and 95.8% in data set [4].
As for `CC1(C)CCCC(C)(C)N1[O]` [tempo, 2,2,6,6-tetramethylpiperidine-N-oxyl], the “lipophilicity relative to tempol” value in data set [5] was “approximately 200 times”. In addition, the “level of phosphorylated SAPK (SAPKP)” value with SAPK is given as “significant increase”. For the same molecule, in data set [6], the tumor growth rate result is reported as “significant decline in tumor growth rate”.
